Laboratory results as given in PubChem BioAssay (NCI).
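At the GI50, growth is halved. TGI marks complete inhibition of growth.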

Experiments:
Experiment in all cases: inhibition of tumour cell growth, NCI panel, 384-well format
NCI-H460 NSCLC = tested on: NCI-H460 NSCLC
TK-10 renal = tested on: TK-10 renal
HS 578T breast = tested on: HS 578T breast
SNB-75 CNS = tested on: SNB-75 CNS
K-562 leukemia = tested on: K-562 leukemia
U251 glioblastoma = tested on: U251 glioblastoma
CCRF-CEM leukemia = tested on: CCRF-CEM leukemia
MDA-MB-435 melanoma = tested on: MDA-MB-435 melanoma
MDA-MB-468 breast = tested on: MDA-MB-468 breast
SF-539 CNS = tested on: SF-539 CNS
NCI-H322M lung = tested on: NCI-H322M lung
SK-MEL-28 melanoma = tested on: SK-MEL-28 melanoma
MDA-MB-231 breast = tested on: MDA-MB-231 breast
A498 renal = tested on: A498 renal
SK-MEL-5 melanoma = tested on: SK-MEL-5 melanoma
UO-31 renal = tested on: UO-31 renal
M14 melanoma = tested on: M14 melanoma
HOP-62 NSCLC = tested on: HOP-62 NSCLC
786-0 renal = tested on: 786-0 renal
KM12 colon = tested on: KM12 colon
OVCAR-8 ovarian = tested on: OVCAR-8 ovarian
UACC-62 melanoma = tested on: UACC-62 melanoma
T-47D breast = tested on: T-47D breast
SN12C renal = tested on: SN12C renal
DU-145 prostate = tested on: DU-145 prostate
HOP-92 NSCLC = tested on: HOP-92 NSCLC
BT-549 breast = tested on: BT-549 breast
SR leukemia = tested on: SR leukemia
SF-295 CNS = tested on: SF-295 CNS
COLO 205 colon = tested on: COLO 205 colon
SK-OV-3 ovarian = tested on: SK-OV-3 ovarian
EKVX NSCLC = tested on: EKVX NSCLC
OVCAR-4 ovarian = tested on: OVCAR-4 ovarian
HT29 colon = tested on: HT29 colon
UACC-257 melanoma = tested on: UACC-257 melanoma
HCC-2998 colon = tested on: HCC-2998 colon
RPMI-8226 leukemia = tested on: RPMI-8226 leukemia
OVCAR-5 ovarian = tested on: OVCAR-5 ovarian
NCI-H522 lung = tested on: NCI-H522 lung
PC-3 prostate = tested on: PC-3 prostate
LOX IMVI melanoma = tested on: LOX IMVI melanoma
SW-620 colon = tested on: SW-620 colon
A549 NSCLC = tested on: A549 NSCLC
OVCAR-3 ovarian = tested on: OVCAR-3 ovarian
SNB-19 CNS = tested on: SNB-19 CNS
IGROV1 ovarian = tested on: IGROV1 ovarian
ACHN renal = tested on: ACHN renal
NCI/ADR-RES ovarian = tested on: NCI/ADR-RES ovarian
NCI-H23 lung = tested on: NCI-H23 lung
RXF 393 renal = tested on: RXF 393 renal
MALME-3M melanoma = tested on: MALME-3M melanoma
HL-60(TB) leukemia = tested on: HL-60(TB) leukemia
HCT-15 colon = tested on: HCT-15 colon
NCI-H226 lung = tested on: NCI-H226 lung
MOLT-4 leukemia = tested on: MOLT-4 leukemia
MCF7 breast = tested on: MCF7 breast
SF-268 CNS = tested on: SF-268 CNS
CAKI-1 renal = tested on: CAKI-1 renal

CN(C)CCOc1ccc(-c2nc(-c3ccc4c(c3)CC/C4=N\O)c(-c3ccncc3)[nH]2)cc1
GI50 (NCI-H460 NSCLC): 1890 nM
TGI (NCI-H460 NSCLC): 3380 nM
GI50 (TK-10 renal): 3980 nM
TGI (TK-10 renal): 13000 nM
GI50 (HS 578T breast): 1880 nM
TGI (HS 578T breast): 3290 nM
GI50 (SNB-75 CNS): 2070 nM
TGI (SNB-75 CNS): 3510 nM
GI50 (K-562 leukemia): 1970 nM
TGI (K-562 leukemia): 3430 nM
GI50 (U251 glioblastoma): 2010 nM
TGI (U251 glioblastoma): 3480 nM
GI50 (CCRF-CEM leukemia): 1880 nM
TGI (CCRF-CEM leukemia): 3290 nM
GI50 (MDA-MB-435 melanoma): 58.9 nM
TGI (MDA-MB-435 melanoma): 1600 nM
GI50 (MDA-MB-468 breast): 2140 nM
TGI (MDA-MB-468 breast): 3580 nM
GI50 (SF-539 CNS): 2140 nM
TGI (SF-539 CNS): 3600 nM
GI50 (NCI-H322M lung): 1850 nM
TGI (NCI-H322M lung): 3510 nM
GI50 (SK-MEL-28 melanoma): 27.7 nM
TGI (SK-MEL-28 melanoma): 198 nM
GI50 (MDA-MB-231 breast): 1150 nM
TGI (MDA-MB-231 breast): 2370 nM
GI50 (A498 renal): 1880 nM
TGI (A498 renal): 3310 nM
GI50 (SK-MEL-5 melanoma): 130 nM
TGI (SK-MEL-5 melanoma): 1570 nM
GI50 (UO-31 renal): 15800 nM
TGI (UO-31 renal): 29500 nM
GI50 (M14 melanoma): 33.4 nM
TGI (M14 melanoma): 839 nM
GI50 (HOP-62 NSCLC): 1850 nM
TGI (HOP-62 NSCLC): 3260 nM
GI50 ([…]-0 renal): 1790 nM
TGI (786-0 renal): 3200 nM
GI50 (KM12 colon): 1900 nM
TGI (KM12 colon): 3330 nM
GI50 (OVCAR-8 ovarian): 1890 nM
TGI (OVCAR-8 ovarian): 3320 nM
GI50 (UACC-62 melanoma): 22.6 nM
TGI (UACC-62 melanoma): 285 nM
GI50 (T-47D breast): 1880 nM
TGI (T-47D breast): 3300 nM
GI50 (SN12C renal): 14200 nM
TGI (SN12C renal): 27300 nM
GI50 (DU-145 prostate): 3090 nM
TGI (DU-145 prostate): 9610 nM
GI50 (HOP-92 NSCLC): 1740 nM
TGI (HOP-92 NSCLC): 3120 nM
GI50 (BT-549 breast): 1960 nM
TGI (BT-549 breast): 3390 nM
GI50 (SR leukemia): 1710 nM
TGI (SR leukemia): 3090 nM
GI50 (SF-295 CNS): 7010 nM
TGI (SF-295 CNS): 19100 nM
GI50 (COLO 205 colon): 20.3 nM
TGI (COLO 205 colon): 1130 nM
GI50 (SK-OV-3 ovarian): 1790 nM
TGI (SK-OV-3 ovarian): 3190 nM
GI50 (EKVX NSCLC): 1890 nM
TGI (EKVX NSCLC): 3430 nM
GI50 (OVCAR-4 ovarian): 2680 nM
TGI (OVCAR-4 ovarian): 4170 nM
GI50 (HT29 colon): 555 nM
TGI (HT29 colon): 2060 nM
GI50 (UACC-257 melanoma): 25.7 nM
TGI (UACC-257 melanoma): 164 nM
GI50 (HCC-2998 colon): 1690 nM
TGI (HCC-2998 colon): 3080 nM
GI50 (RPMI-8226 leukemia): 1900 nM
TGI (RPMI-8226 leukemia): 3360 nM
GI50 (OVCAR-5 ovarian): 1860 nM
TGI (OVCAR-5 ovarian): 3320 nM
GI50 (NCI-H522 lung): 1590 nM
TGI (NCI-H522 lung): 2950 nM
GI50 (PC-3 prostate): 1780 nM
TGI (PC-3 prostate): 3270 nM
GI50 (LOX IMVI melanoma): 963 nM
TGI (LOX IMVI melanoma): 2160 nM
GI50 (SW-620 colon): 2360 nM
TGI (SW-620 colon): 3850 nM
GI50 (A549 NSCLC): 1990 nM
TGI (A549 NSCLC): 4020 nM
GI50 (OVCAR-3 ovarian): 2070 nM
TGI (OVCAR-3 ovarian): 3520 nM
GI50 (SNB-19 CNS): 2070 nM
TGI (SNB-19 CNS): 4060 nM
GI50 (IGROV1 ovarian): 13100 nM
TGI (IGROV1 ovarian): 25900 nM
GI50 (ACHN renal): 2140 nM
TGI (ACHN renal): 4320 nM
GI50 (NCI/ADR-RES ovarian): 21900 nM
TGI (NCI/ADR-RES ovarian): 58300 nM
GI50 (NCI-H23 lung): 1380 nM
TGI (NCI-H23 lung): 2860 nM
GI50 (RXF 393 renal): 1680 nM
TGI (RXF 393 renal): 3050 nM
GI50 (MALME-3M melanoma): 10.6 nM
TGI (MALME-3M melanoma): 34.2 nM
GI50 (HL-60(TB) leukemia): 941 nM
TGI (HL-60(TB) leukemia): 2090 nM
GI50 (HCT-15 colon): 2450 nM
TGI (HCT-15 colon): 6460 nM
GI50 (NCI-H226 lung): 2320 nM
TGI (NCI-H226 lung): 3780 nM
GI50 (MOLT-4 leukemia): 2150 nM
TGI (MOLT-4 leukemia): 3600 nM
GI50 (MCF7 breast): 1460 nM
TGI (MCF7 breast): 2810 nM
GI50 (SF-268 CNS): 1810 nM
TGI (SF-268 CNS): 3220 nM
GI50 (CAKI-1 renal): 1980 nM
TGI (CAKI-1 renal): 3430 nM

CC[C@]1(O)C[C@H]2CN(CCc3c([nH]c4ccccc34)[C@@](C(=O)OC)(c3cc4c(cc3OC)N(C=O)[C@H]3[C@@](O)(C(=O)OC)[C@H](OC(C)=O)[C@]5(CC)C=CCN6CC[C@]43[C@@H]65)C2)C1
TGI (NCI-H460 NSCLC): 13.1 nM
GI50 (TK-10 renal): 54.5 nM
TGI (K-562 leukemia): < 10.8 nM
TGI (SF-539 CNS): < 12.2 nM
GI50 (NCI-H322M lung): 34 nM
TGI (SK-MEL-28 melanoma): 56200 nM
TGI (MDA-MB-231 breast): > 93800 nM
GI50 (A498 renal): < 16.3 nM
TGI (A498 renal): 844 nM
GI50 (UO-31 renal): 446 nM
TGI (UO-31 renal): > 84800 nM
TGI (M14 melanoma): 17800 nM
TGI (HOP-62 NSCLC): 2330 nM
GI50 ([…]-0 renal): 14.3 nM
TGI (786-0 renal): 48100 nM
GI50 (OVCAR-8 ovarian): < 12.1 nM
TGI (OVCAR-8 ovarian): 47 nM
TGI (UACC-62 melanoma): 26000 nM
GI50 (HOP-92 NSCLC): < 23.2 nM
TGI (HOP-92 NSCLC): 41100 nM
TGI (BT-549 breast): 32.9 nM
GI50 (SF-295 CNS): < 14.2 nM
TGI (SF-295 CNS): < 23.1 nM
GI50 (EKVX NSCLC): 34.2 nM
TGI (EKVX NSCLC): > 91800 nM
GI50 (OVCAR-4 ovarian): 1400 nM
TGI (HT29 colon): 36200 nM
TGI (UACC-257 melanoma): 20200 nM
GI50 (OVCAR-5 ovarian): 44.2 nM
GI50 (PC-3 prostate): < 10.5 nM
TGI (PC-3 prostate): > 61200 nM
GI50 (A549 NSCLC): 34.6 nM
TGI (OVCAR-3 ovarian): < 11 nM
GI50 (IGROV1 ovarian): < 27.3 nM
TGI (IGROV1 ovarian): > 35600 nM
GI50 (ACHN renal): 262 nM
TGI (ACHN renal): > 95900 nM
GI50 (NCI/ADR-RES ovarian): 1870 nM
TGI (NCI/ADR-RES ovarian): 4570 nM
TGI (NCI-H23 lung): 49.9 nM
TGI (RXF 393 renal): 78100 nM
TGI (MALME-3M melanoma): 29300 nM
GI50 (HCT-15 colon): 72 nM
TGI (HCT-15 colon): 1310 nM
GI50 (NCI-H226 lung): 39.9 nM
TGI (NCI-H226 lung): > 84900 nM
TGI (MCF7 breast): 4320 nM
TGI (SF-268 CNS): 20300 nM
GI50 (CAKI-1 renal): 30.4 nM
TGI (CAKI-1 renal): 18100 nM
